{"source": "paper PMC10958470", "about": "(Virus Research, 2024)", "key": {"[1]": {"target": "SARS-CoV-2 RdRp nsp12/7/8 complex (Severe acute respiratory syndrome coronavirus 2, UniProt P0DTD1)", "test": "biochemical", "assay_type": "biochemical", "conditions": "for IC50: RdRp IC50 [µM]; for inhibition at 20 µM: read-out: RdRp Inhibition [%] 20 µM (PS Inhibition RdRp [%])"}, "[2]": {"target": "SARS-CoV-2 helicase (nsp13) (Severe acute respiratory syndrome coronavirus 2, UniProt P0DTD1)", "test": "biochemical", "assay_type": "biochemical", "conditions": "for inhibition at 2.5 µM: read-out: DTT Helicase unwinding inhibition [%] 2.5 µM triplicates"}, "RdRp complex": {"target": "RdRp complex (Severe acute respiratory syndrome coronavirus 2, UniProt P0DTD1)", "assay_type": "binding, SARS-CoV-2"}, "GTPase dynamin": {"target": "GTPase dynamin", "conditions": "read-out: IC50 GTPase dynamin; ref Medchemexpress, 2023; cited from earlier work"}, "[3]": {"target": "SARS-CoV-2 nsp13 NTPase activity (Severe acute respiratory syndrome coronavirus 2, UniProt P0DTD1)", "test": "biochemical", "assay_type": "biochemical"}, "SARS-CoV-2 helicase": {"target": "SARS-CoV-2 helicase (Severe acute respiratory syndrome coronavirus 2, UniProt P0DTD1)", "assay_type": "binding"}, "SARS-CoV-2 RdRp": {"system": "SARS-CoV-2 RdRp", "conditions": "biochemical readout; ref Yin et al., 2021; cited from earlier work"}, "[4]": {"conditions": "read-out: Helicase Inhibition [%] 20 µM (PS Inhibition Helicase [%])"}}, "note": "Entries after “also recorded” stand apart in the source; their conditions may differ. Read-outs that look alike come from different tables or passages of the source.", "data": [{"smiles": "O=C(N/N=C/c1ccc(O)c(O)c1)c1cc2ccccc2cc1O", "note": "[dynasore]", "values": [{"measurement": "change of RdRp IC50 with increasing ATP concentration", "setting": "[1]", "result": "did not detect any change"}, {"measurement": "change of RdRp IC50 with increasing oligo-U concentration", "setting": "[1]", "result": "gain of potency in the presence of 3 µM oligo-U"}, {"measurement": "IC50", "setting": "[1]", "result": 6.22, "unit": "µM"}, {"measurement": "inhibition at 20 µM", "setting": "[1]", "result": 96.1, "unit": "%"}, {"measurement": "inhibition at 20 µM", "setting": "[2]; [4]", "result": 7.02, "unit": "%"}, {"measurement": "PicoGreen effect [%] 20 µM", "setting": "annealed dsDNA substrate", "result": 6.63, "unit": "%"}, {"measurement": "RdRp Tm °C 20 µM", "setting": "RdRp complex", "result": 43.3, "unit": "°C"}, {"measurement": "RdRp Tm °C 100 µM", "setting": "RdRp complex", "result": 44.5, "unit": "°C"}, {"measurement": "effect on RdRp melting temperature", "setting": "RdRp complex", "result": "concentration-dependent protein stabilizing effect"}, {"measurement": "increase of Tm of RdRp", "setting": "RdRp complex", "result": "about 1.5 K"}, {"measurement": "IC50", "setting": "GTPase dynamin", "result": 15, "unit": "µM"}]}, {"smiles": "O=c1c(O)c(-c2cc(O)c(O)c(O)c2)oc2cc(O)cc(O)c12", "note": "[myricetin (cannabiscetin), myricetin]", "values": [{"measurement": "DTT nsp13 inhibition [%] 20 µM (DTT HC Helicase inhibition [%])", "setting": "[2]", "result": 67.25, "unit": "%"}, {"measurement": "inhibition at 2.5 µM", "setting": "[2]", "result": 22.1, "unit": "%"}, {"measurement": "inhibition at 20 µM", "setting": "[2]; read-out: DTT nsp13 inhibition [%] 20 µM (DTT HC Helicase inhibition [%])", "result": "> 50", "unit": "%"}, {"measurement": "inhibition at 20 µM", "setting": "[2]; [4]", "result": 100, "unit": "%"}, {"measurement": "DTT Helicase ATPase activity PLUS DNA substrate 2 µM", "setting": "[3]", "result": 77.50}, {"measurement": "DTT Helicase ATPase activity [%] 2 µM", "setting": "[3]", "result": 62.36, "unit": "%"}, {"measurement": "Helicase Tm °C 20 µM", "setting": "SARS-CoV-2 helicase", "result": 38.3, "unit": "°C"}, {"measurement": "Helicase Tm °C 100 µM", "setting": "SARS-CoV-2 helicase", "result": 38.8, "unit": "°C"}, {"measurement": "effect on helicase Tm", "setting": "SARS-CoV-2 helicase", "result": "did not result in a Tm change"}, {"measurement": "RdRp Tm °C 20 µM", "setting": "RdRp complex", "result": 42.7, "unit": "°C"}, {"measurement": "RdRp Tm °C 100 µM", "setting": "RdRp complex", "result": 43.6, "unit": "°C"}, {"measurement": "effect on RdRp melting temperature", "setting": "RdRp complex", "result": "no shift in Tm"}]}, {"smiles": "Cc1ccc(C(=O)Nc2ccc(S(=O)(=O)O)c3cc(S(=O)(=O)O)cc(S(=O)(=O)O)c23)cc1NC(=O)c1cccc(NC(=O)Nc2cccc(C(=O)Nc3cc(C(=O)Nc4ccc(S(=O)(=O)O)c5cc(S(=O)(=O)O)cc(S(=O)(=O)O)c45)ccc3C)c2)c1", "note": "[suramin hexasodium]", "values": [{"measurement": "RdRp Inhibition [%] 20 µM (PS Inhibition RdRp [%])", "setting": "[1]", "result": 98.49, "unit": "%"}, {"measurement": "change of RdRp IC50 with increasing ATP concentration", "setting": "[1]", "result": "no changes in IC50"}, {"measurement": "change of RdRp IC50 with increasing oligo-U concentration", "setting": "[1]", "result": "no changes in IC50"}, {"measurement": "IC50", "setting": "[1]", "result": 0.24, "unit": "µM"}, {"measurement": "DTT nsp13 inhibition [%] 20 µM (DTT HC Helicase inhibition [%])", "setting": "[2]", "result": 92.60, "unit": "%"}, {"measurement": "IC50", "setting": "[2]; DTT Helicase IC50 [µM]", "result": 5.42, "unit": "µM"}, {"measurement": "inhibition at 2.5 µM", "setting": "[2]", "result": 53.1, "unit": "%"}, {"measurement": "inhibition at 20 µM", "setting": "[2]; [4]", "result": 98, "unit": "%"}, {"measurement": "DTT Helicase ATPase activity PLUS DNA substrate 2 µM", "setting": "[3]", "result": 63.38}, {"measurement": "DTT Helicase ATPase activity [%] 2 µM", "setting": "[3]", "result": 121.61, "unit": "%"}, {"measurement": "inhibition of helicase NTPase activity, 2 mM DTT", "setting": "[3]", "result": "only active in presence of dsDNA substrate"}, {"measurement": "inhibition of helicase NTPase activity, absence of DTT", "setting": "[3]", "result": "showed inhibition in absence of DTT, independent of the presence of the dsDNA substrate"}, {"measurement": "Helicase Tm °C 20 µM", "setting": "SARS-CoV-2 helicase", "result": 36.8, "unit": "°C"}, {"measurement": "Helicase Tm °C 100 µM", "setting": "SARS-CoV-2 helicase", "result": 36.5, "unit": "°C"}, {"measurement": "effect on helicase Tm", "setting": "SARS-CoV-2 helicase", "result": "decrease in Tm"}, {"measurement": "RdRp Tm °C 20 µM", "setting": "RdRp complex", "result": 44.3, "unit": "°C"}, {"measurement": "RdRp Tm °C 100 µM", "setting": "RdRp complex", "result": 46.6, "unit": "°C"}, {"measurement": "effect on RdRp melting temperature", "setting": "RdRp complex", "result": "increase in melting temperature; also recorded: concentration-dependent protein stabilizing effect"}, {"measurement": "fold stronger inhibition of SARS-CoV-2 RdRp compared to Remdesivir", "setting": "SARS-CoV-2 RdRp", "result": 20, "unit": "fold"}]}, {"smiles": "O=c1c(O)c(-c2ccc(O)c(O)c2)oc2cc(O)ccc12", "note": "[fisetin (fustel), fisetin]", "values": [{"measurement": "IC50", "setting": "[1]", "result": 2.17, "unit": "µM"}, {"measurement": "inhibition at 20 µM", "setting": "[1]", "result": 95.8, "unit": "%"}, {"measurement": "inhibition at 20 µM", "setting": "[2]; [4]", "result": 39.3, "unit": "%"}, {"measurement": "PicoGreen effect [%] 20 µM", "setting": "annealed dsDNA substrate", "result": 4.99, "unit": "%"}, {"measurement": "RdRp Tm °C 20 µM", "setting": "RdRp complex", "result": 42.7, "unit": "°C"}, {"measurement": "RdRp Tm °C 100 µM", "setting": "RdRp complex", "result": 43.5, "unit": "°C"}]}]}
